From US8778304B2, “TSPO-targeting compounds and uses thereof” (The Johns Hopkins University, priority 2010, dated 2014)

Columns and labels:
TSPO [1] = molecular target: T1, TSPO (Homo sapiens, UniProt P30536); details: cited from earlier work
TSPO [2] = molecular target: T1, TSPO; details: first human study; cited from earlier work
TSPO [3] = details: cited from earlier work
TSPO [4] = molecular target: T2, TSPO (Mus musculus, UniProt P50637); details: Sandhoff mice at 4 months of age; cited from earlier work
TSPO [5] = molecular target: T2, TSPO; assay: [125I]-IodoDPA713 microSPECT/CT dynamic in vivo imaging of TSPO in Sandhoff disease mice; parameters: Fresh-frozen brains were sectioned (20 μm) on a freezing cryostat in the horizontal plane; from tissue; host or cells: mouse brain sections (fresh-frozen for A4, PLP-fixed for A5)
Description: (§1) An X-SPECT small-animal SPECT/CT system (Gamma Medica-Ideas) was used for image acquisition. Each mouse was anesthetized with isofluorane prior to imaging. About 1-2 mCi of [^125I]-IodoDPA713 was injected into each mouse via intravenous injection, and images were acquired immediately after injection. The SPECT projection data were acquired using 2 low-energy, high-resolution parallel-hole collimators with a radius of rotation of 4.65 cm (spatial resolution, 1.6 mm). The tomographic data were acquired in 64 projections over 360° at 20 s per projection. After tomography, CT was acquired in 512 projections to allow anatomic coregistration. Data were reconstructed using the ordered subsets-expectation maximization algorithm and analyzed using AMIDE software (free software provided by SourceForge). Data was analyzed using Analysis software, and time activity curve of the [^125I]-IodoDPA713 uptake was generated for each mouse. Three mice per genotype were scanned for the study. For the blocking study, non-radioactive IodoDPA713 (20 μM) was intravenously co-injected with [^125I]-IodoDPA713, and images were acquired immediately after [^125I] injection.

TSPO [6] = molecular target: T2, TSPO; assay: [125I]-IodoDPA713 microSPECT/CT imaging of heart in coxsackievirus-induced myocarditis mice; type: in vivo
Description: as §1, with “treatment” for “genotype”, “study.” for “study. For the blocking study, non-radioactive IodoDPA713 (20 μM) was intravenously co-injected with [^125I]-IodoDPA713, and images were acquired immediately after [^125I] injection.”

TSPO [7] = molecular target: T2, TSPO; assay: SPECT-CT imaging of LPS-induced lung inflammation in mice; type: in vivo; details: for lung signal to background ratio: 1 h postinjection, lungs vs muscle
Description: Eight- to 10-week-old female CD-1 mice (Charles River Labs) were imaged. Mice were anesthetized by brief isoflurane sedation. While anesthetized, intranasal instillation was conducted by placing 10 μg/60 μL (167 μg/mL) of lipopolysaccharide (LPS) onto the nares (Szarka et al., “A murine model of pulmonary damage induced by lipopolysaccharide via intranasal instillation,” J. Immunol. Methods, vol. 202, pp. 49-57, 1997). The 60 μL sample was applied onto the nares as three 20 μL drops. Phosphate-buffered saline (PBS) was administered in a similar fashion and used as the control.
For single photon emission computed tomography-computed tomography (SPECT-CT) imaging 18.5 MBq (500 μCi) of [^125I]1 was injected via the tail vein into the LPS and PBS treated mice and imaged 1 h later, which corresponded to 24 h after the administration of LPS or PBS. That time point was chosen since it represents the time at which there is maximum inflammation in the lungs, as determined by a time course study with histologic correlation (data not shown). Each mouse was anesthetized with isoflurane and maintained under 1-2% isoflurane in oxygen. The mouse was positioned on the X-SPECT (Gamma Medica, Northridge, Calif.) gantry and was scanned using two opposing low energy pinhole collimators (Gamma Medica) rotating through 360° in 3° increments for 20 s per increment. Images were reconstructed using LumaGem software that accompanies the X-SPECT. Immediately following SPECT acquisition, the mice were scanned by CT over a 3-cm field-of-view using a 600-μA, 50 kV beam. […] Data were reconstructed using the ordered subsets-expectation maximization (OS-EM) algorithm. The signal to background ratio was calculated from the images by drawing regions of interest over the lungs (signal) and muscle, (background).

TSPO [8] = molecular target: T3, TSPO (Rattus norvegicus, UniProt P16257); assay: In vitro autoradiography with [125I]1 on rat brain sections (neurotoxicant model of brain inflammation); type: binding
T3 construct: Fresh-frozen brains were sectioned (20 μm) on a freezing cryostat in the horizontal plane; from tissue; host or cells: rat brain sections (control and neurotoxicant-treated)
Description: Fresh-frozen brains were sectioned (20 μm) on a freezing cryostat in the horizontal plane. Brain sections were thaw-mounted onto poly-L-lysine-coated slides (Sigma) and stored at −20° C. until used. Autoradiography using [^125I]IodoDPA-713 ([^125I]1) was performed on adjacent brain sections using the following procedures. Slides were thawed and dried at 37° C. for 30 min and prewashed in 50 mM Tris-HCl buffer (pH 7.4) for 5 min at room temperature. Sections were then incubated in 1.4 nM [^125I]1 in 50 mM Tris-HCl buffer for 30 min at room temperature. For non-specific binding, adjacent sections were incubated in the presence of 10 μM racemic PK11195. The reaction was terminated by two 3 min washes in cold buffer (4° C.) and two dips in cold deionized water (4° C.). Sections were air-dried and apposed to Kodak Bio-Max MR film for 1 h. Images were acquired using the MCID image analysis software (InterFocus Imaging Ltd., Cambridge, England).
The first study involved a model of brain inflammation in which rats were exposed to a seizure-inducing neurotoxicant (FIG. 2). Note that higher levels of [^125I]1 were present in the neurotoxicant-treated rat brain (FIG. 2B) than in control brain (FIG. 2A). Exposure of the tissue specimens to [^125I]1 to generate these images required only 60 min, as opposed to 4-5 weeks often needed for tritium-labeled compounds when exposing the samples to film.

TSPO [9] = molecular target: T2, TSPO; assay: Quantitative receptor autoradiography with [125I]-IodoDPA713 on Sandhoff mouse brain sections; type: binding; parameters: Fresh-frozen brains were sectioned (20 μm) on a freezing cryostat in the horizontal plane; from tissue; host or cells: mouse brain sections (fresh-frozen for A4, PLP-fixed for A5)
Description: Fresh-frozen brains were sectioned (20 μm) on a freezing cryostat in the horizontal plane. Brain sections were thaw-mounted onto poly-L-lysine-coated slides (Sigma-Aldrich, St. Louis, Mo.) and stored at −20° C. until used. [^125I]-IodoDPA713 autoradiography to measure TSPO levels were performed on adjacent brain sections using the same procedures. Slides were thawed and dried at 37° C. for 30 min and prewashed in 50 mM Tris-HCl buffer (pH 7.4) for 5 min at room temperature. Sections were then incubated in 0.5 nM [^125I]-IodoDPA713 in buffer for 30 min at room temperature. For non-specific binding, adjacent sections were incubated in the presence of […] racemic PK11195. The reaction was terminated by two 3-min washes in cold buffer (4° C.) and two dips in cold deionized water (4° C.). Sections incubated with [^125I]-IodoDPA713 were apposed to Kodak Bio-Max MR films with [^125I]-Microscales (GE Healthcare, Piscataway, N.J.) for 1 h. Images were acquired and quantified using the MCID software (InterFocus Imaging Ltd, Cambridge, England).

T1 sequence (P30536 whole entry): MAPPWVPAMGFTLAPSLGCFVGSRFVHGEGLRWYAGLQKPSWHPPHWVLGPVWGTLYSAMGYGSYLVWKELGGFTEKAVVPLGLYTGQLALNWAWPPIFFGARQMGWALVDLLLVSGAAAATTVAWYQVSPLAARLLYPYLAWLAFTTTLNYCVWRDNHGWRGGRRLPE

## CCN(CC)C(=O)Cc1c(-c2ccc(OC)cc2)nn2c(C)cc(C)nc12 [DPA-713, N,N-diethyl-2-[2-(4-methoxy-phenyl)-5,7-dimethyl-pyrazolo[1,5-a]pyrimidin-3-yl]-acetamide]
TSPO [1]
  affinity for TSPO relative to PK11195: nearly twice

## CCN(CC)C(=O)Cc1c(-c2ccc(OC)cc2)nn2c(C)cc(C)nc12 [[^11C]DPA-713]
TSPO [2]
  binding potential relative to [11C]PK11195: higher binding potential
TSPO [3]; PET imaging
  brain uptake relative to [11C]-PK11195: higher brain uptake
TSPO [3]; rodent model of brain injury
  signal-to-noise ratios relative to [11C]PK11195: higher signal-to-noise ratios

## CCC(C)N(C)C(=O)c1cc2ccccc2c(-c2ccccc2Cl)n1 (centres unmarked) [[^11C]PK11195]
TSPO [3]; in vivo
  brain uptake: poor brain uptake
  non-specific binding: significant non-specific binding
TSPO [4]
  PET uptake in Sandhoff mice compared to wildtype: higher

## CCN(CC)C(=O)Cc1c(-c2ccc(OC)c([125I])c2)nn2c(C)cc(C)nc12 [[^125I]1, N,N-Diethyl-2-[2-(3-[^125I]-iodo-4-methoxyphenyl)-5,7-dimethylpyrazolo[1,5-a]pyrimidin-3-yl]acetamide]
TSPO [5]; 2 months, p=0.0484
  tracer uptake (SUV) in thalamus, Sandhoff versus wildtype: statistically significant increase
TSPO [5]; 3 months, p=0.0172
  tracer uptake (SUV) in brainstem, Sandhoff versus wildtype: statistically significant increase
TSPO [5]; Sandhoff mouse, co-injected nonradioactive IodoDPA713 (20 μM)
  tracer uptake with blocker versus without blocker: reduced uptake
TSPO [5]; quantitative analysis, FIG. 8K
  tracer uptake (SUV) in thalamus, cerebellum and brainstem, Sandhoff versus wildtype: trend of increased uptake
TSPO [5]; thalamus, FIG. 8J
  tracer uptake in thalamus, Sandhoff versus wildtype (time-activity curve): consistently had higher uptake
TSPO [6]; coxsackievirus-injected mice
  organ specificity of increased uptake (lungs and liver also analyzed): heart-specific
TSPO [6]; n=3, p<0.05, FIG. 15
  tracer uptake (SUV) in heart, coxsackievirus-injected versus PBS-injected control mice: statistically significant increase
TSPO [7]; LPS treated mouse
  lung signal to background ratio: 21.2
TSPO [7]; SPECT-CT, FIG. 3
  uptake in inflamed mouse lungs relative to normal lungs: 1.5 fold
TSPO [7]; control mouse
  lung signal to background ratio: 14.6
TSPO [8]; 1.4 nM tracer, horizontal brain sections, FIG. 2A/2B
  level of [125I]1 binding in neurotoxicant-treated rat brain versus control brain: higher levels
TSPO [8]; neurotoxicant-treated rat, 10 μM PK11195, FIG. 2C
  blocking of [125I]1 uptake by PK11195 (specificity for TSPO): almost completely blocked
TSPO [9]; 2 months, did not reach statistical significance, p=0.098
  binding in cerebellum, Sandhoff versus wildtype: modest increase
TSPO [9]; 2 months, p=0.0007
  binding to TSPO in thalamus, Sandhoff versus wildtype: significant increases
TSPO [9]; 2 months, p=0.0011
  binding to TSPO in brainstem, Sandhoff versus wildtype: significant increases
TSPO [9]; 2 months, p=0.63
  binding in hippocampus, Sandhoff versus wildtype: no significant increase
TSPO [9]; 2 months, p=0.98
  binding in cerebral cortex, Sandhoff versus wildtype: no significant increase
TSPO [9]; 3 months, p<0.0001
  binding in thalamus, Sandhoff versus wildtype: increased TSPO binding
TSPO [9]; 3 months, p=0.0016
  binding in brainstem, Sandhoff versus wildtype: increased TSPO binding
TSPO [9]; 3 months, p=0.0037
  binding in cerebral cortex, Sandhoff versus wildtype: increased binding
TSPO [9]; 3 months, p=0.0151
  binding in cerebellum, Sandhoff versus wildtype: increased binding
TSPO [9]; 3 months, p=0.5912
  binding in hippocampus, Sandhoff versus wildtype: no increased TSPO binding
